Data on 3 molecules can be found in article PMC8050083, “Naturally-occurring spinosyn A and its derivatives function as argininosuccinate synthase activator and tumor inhibitor” (Nature Communications, 2021).

Like-named read-outs stand apart in the source and are kept apart here.

Data set [1] concerns the target T1, Argininosuccinate synthase (ASS1) (Homo sapiens, UniProt P00966).
T1 construct: recombinant human ASS1, N-terminal 6×His tag (pET28a), NM_000050
T1 sequence (P00966 1-412): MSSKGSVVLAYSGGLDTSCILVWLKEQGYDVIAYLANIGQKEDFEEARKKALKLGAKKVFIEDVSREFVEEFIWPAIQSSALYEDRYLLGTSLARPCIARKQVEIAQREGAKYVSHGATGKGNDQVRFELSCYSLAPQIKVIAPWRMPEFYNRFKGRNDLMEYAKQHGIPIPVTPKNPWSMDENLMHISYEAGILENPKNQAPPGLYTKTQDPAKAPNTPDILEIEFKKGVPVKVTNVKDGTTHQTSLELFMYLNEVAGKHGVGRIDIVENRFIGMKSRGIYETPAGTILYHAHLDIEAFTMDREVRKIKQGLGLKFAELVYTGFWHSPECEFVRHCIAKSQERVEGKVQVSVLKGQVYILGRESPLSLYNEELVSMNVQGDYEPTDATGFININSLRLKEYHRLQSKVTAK
In words: SPR (BIAcore X100); also LC-MS/MS of Cys97 adduct, competition with Biotin-SPA, enzyme activation (AC50 […]). It counts as binding.

For data set [2], the target named is T1, Argininosuccinate synthase (ASS1). The description is as above. In kind it is binding. The source holds these as a separate data set.
A further data set deals with BT20. In words: cells. Also noted: crystal violet staining viability/proliferation assay, IC50 (SPSS), LM-2I on breast cancer and normal breast epithelial lines. The conditions noted are these: Homo sapiens, BT-20; mean of 3 repeats. As for the experimental part: (§1) Fig. 1 SPA and its derivative LM-2I inhibit breast cancer proliferation and growth. a Chemical structures of SPA (1). b Crystal violet assay for the effects of SPA on breast cancer cell proliferation. IC50 values were calculated with SPSS 18.0 (mean ± s.d., n = 3 biologically independent experiments). c Representative microscope images of colony formation for different breast cancer cell lines treated with SPA. Scale bars are […]. d Chemical structures of LM-2I (2). e Crystal violet assay for the effects of LM-2I on breast cancer cell proliferation. IC50 values were calculated with SPSS 18.0 (mean ± s.d., n = 3 biologically independent experiments). f Representative microscope images of colony formation for different breast cancer cell lines treated with LM-2I. Scale bars are […]. MDA-MB-231 cells were inoculated subcutaneously into the right flank of nu/nu female mice. When the average tumor size reached about 100 mm^3, mice were treated with ether vehicle, SPA (10 mg/kg/day) or LM-2I (5 mg/kg/day). Tumor sizes (g) and mouse body weight (i) were measured every 2 days. 28 days later, mice were sacrificed and tumors were dissected and weighted (h). Data represent mean ± s.d. (n = 8 mice per group). *P < 0.05, ***P < 0.001, NS: not significant (P > 0.05) from two-tailed unpaired Student’s t tests.Source data are provided as a Source Data file. All cell lines were purchased from American Type Culture Collection (ATCC, Manassas, VA, USA). The human breast cancer (BC) cell lines BT549, BT474 and T47D were maintained in RPMI 1640 containing 10% (v/v) fetal bovine serum (FBS, Gibco), 0.01 mg/mL insulin and 100 units/mL penicillin/streptomycin (HyClone). SKBR3, Hs578T, and BT20 human BC cell lines were cultured in DMEM medium with 10% (v/v) FBS and 100 units/mL penicillin/streptomycin. HCC1500, HCC1806, and HCC1937 human BC cell lines were cultured in RPMI 1640 medium supplement with 10% (v/v) FBS and 100 units/mL penicillin/streptomycin. MDA-MB-231 human BC cell line was cultured in DMEM/F12 (1: 1) medium with 10% (v/v) FBS and 100 units/mL penicillin/streptomycin. MDA-MB-468 human BC cell line was cultured in DMEM (high glucose) medium with 10% (v/v) FBS and 100 units/mL penicillin/streptomycin. MCF-7 human BC cell line was cultured in EMEM medium with 10% (v/v) FBS, 0.01 mg/mL insulin and 100 units/mL penicillin/streptomycin. […] All of the cells cultured in a humidified incubator at 37 °C and 5% CO2/95% air (v/v).

In a further data set the test system is BT474. Put plainly: cells. The conditions noted are these: Homo sapiens, BT-474; mean of 3 repeats. Details: crystal violet staining viability/proliferation assay, IC50 (SPSS), LM-2I on breast cancer and normal breast epithelial lines. How it is done:
as §1

The next data set concerns BT549. In words: cells. Details: crystal violet staining viability/proliferation assay, IC50 (SPSS), LM-2I on breast cancer and normal breast epithelial lines. The conditions noted are these: Homo sapiens, BT-549; mean of 3 repeats. As for the experimental part: as §1
Another data set concerns HCC1500. In words: cells. The conditions noted are these: HCC1500; mean of 3 repeats. Also noted: crystal violet staining viability/proliferation assay, IC50 (SPSS), LM-2I on breast cancer and normal breast epithelial lines. As for the experimental part: as §1
For another data set, the system named is HCC1806. In words: cells. Details: crystal violet staining viability/proliferation assay, IC50 (SPSS), LM-2I on breast cancer and normal breast epithelial lines. The following applies: Homo sapiens, HCC1806; mean of 3 repeats. As for the experimental part:
as §1

The next data set deals with HCC1937. In words: cells. Also noted: crystal violet staining viability/proliferation assay, IC50 (SPSS), LM-2I on breast cancer and normal breast epithelial lines. The following applies: Homo sapiens, HCC1937; mean of 3 repeats. How it is done:
as §1

Another data set has as its system HS578T. In words: cells. Also noted: crystal violet staining viability/proliferation assay, IC50 (SPSS), LM-2I on breast cancer and normal breast epithelial lines. The following applies: Homo sapiens, Hs-578T; mean of 3 repeats. As for the experimental part:
as §1

Another data set deals with MCF-7. In words: cells. The conditions noted are these: Homo sapiens, MCF7; mean of 3 repeats. Also noted: crystal violet staining viability/proliferation assay, IC50 (SPSS), LM-2I on breast cancer and normal breast epithelial lines. How it is done: as §1
A further data set concerns MDA-MB-231. Put plainly: cells. Also noted: crystal violet staining viability/proliferation assay, IC50 (SPSS), LM-2I on breast cancer and normal breast epithelial lines. The following applies: Homo sapiens, MDA-MB-231; mean of 3 repeats. How it is done:
as §1

For another data set, the system named is MDA-MB-468. Put plainly: cells. Also noted: crystal violet staining viability/proliferation assay, IC50 (SPSS), LM-2I on breast cancer and normal breast epithelial lines. The following applies: Homo sapiens, MDA-MB-468; mean of 3 repeats. As for the experimental part: as §1
The subject of another data set is SKBR3. Put plainly: cells. Also noted: crystal violet staining viability/proliferation assay, IC50 (SPSS), LM-2I on breast cancer and normal breast epithelial lines. The following applies: Homo sapiens, SK-BR-3; mean of 3 repeats. How it is done:
as §1

In a further data set the test system is T47D. In words: cells. Also noted: crystal violet staining viability/proliferation assay, IC50 (SPSS), LM-2I on breast cancer and normal breast epithelial lines. The conditions noted are these: Homo sapiens, T47D; mean of 3 repeats. How it is done:
as §1

The next data set in a line: in vitro. Details: crystal violet staining viability/proliferation assay, IC50 (SPSS), LM-2I on breast cancer and normal breast epithelial lines. The following applies: human, Mean; mean of 3 repeats; given as IC50. How it is done:
(§2) Fig. 1 SPA and its derivative LM-2I inhibit breast cancer proliferation and growth. a Chemical structures of SPA (1). b Crystal violet assay for the effects of SPA on breast cancer cell proliferation. IC50 values were calculated with SPSS 18.0 (mean ± s.d., n = 3 biologically independent experiments). c Representative microscope images of colony formation for different breast cancer cell lines treated with SPA. Scale bars are 40 µM. d Chemical structures of LM-2I (2). e Crystal violet assay for the effects of LM-2I on breast cancer cell proliferation. IC50 values were calculated with SPSS 18.0 (mean ± s.d., n = 3 biologically independent experiments). f Representative microscope images of colony formation for different breast cancer cell lines treated with LM-2I. Scale bars are 40 µM. MDA-MB-231 cells were inoculated subcutaneously into the right flank of nu/nu female mice. When the average tumor size reached about 100 mm^3, mice were treated with ether vehicle, SPA (10 mg/kg/day) or LM-2I (5 mg/kg/day). Tumor sizes (g) and mouse body weight (i) were measured every 2 days. 28 days later, mice were sacrificed and tumors were dissected and weighted (h). Data represent mean ± s.d. (n = 8 mice per group). *P < 0.05, ***P < 0.001, NS: not significant (P > 0.05) from two-tailed unpaired Student’s t tests.Source data are provided as a Source Data file. […]

Another data set deals with 184B5. Put plainly: in vitro. Details: crystal violet staining viability/proliferation assay, IC50 (SPSS), LM-2I on breast cancer and normal breast epithelial lines. The following applies: mean of 3 repeats; given as IC50; inhibitor. As for the experimental part: as §2
Data set [3] deals with T1, Argininosuccinate synthase (ASS1). Put plainly: covalent labelling kinetics by streptavidin-HRP blot (kinact […] min^-1); pull-down from MCF-7 lysate. The following applies: read-out: Ki. In kind it is binding.

For `CC[C@H]1CCC[C@H](O[C@H]2CC[C@H](N(C)C)[C@@H](C)O2)[C@@H](C)C(=O)C2=C[C@@H]3[C@@H](C=C[C@@H]4C[C@@H](O[C@@H]5O[C@@H](C)[C@H](OC)[C@@H](OC)[C@H]5OC)C[C@@H]34)[C@@H]2CC(=O)O1` [compound 1, spinosyn A], the affinity in data set [1], expressed as Kd, was 0.358 µM.
For the molecule `CC[C@H]1CCC[C@H](O[C@H]2CC[C@H](N(C)CC(O)CN3CCNCC3)[C@@H](C)O2)[C@@H](C)C(=O)C2=C[C@@H]3[C@@H](C=C[C@@H]4C[C@@H](O[C@@H]5O[C@@H](C)[C@H](OC)[C@@H](OC)[C@H]5OC)C[C@@H]34)[C@@H]2CC(=O)O1` (some centres unmarked) [compound 2, LM-2I], the Kd (as a rule, the equilibrium constant for the complex coming apart) in data set [2] turned out to be 0.194 µM. The IC50 (in general, the concentration that inhibits the measured activity by half) with BT20 worked out at 8.22 µM; in the data set on BT474 it was 6.2 µM; with BT549, 1.51 µM; with HCC1500, 10 µM; in the data set on HCC1806, 2.13 µM; in the data set with HCC1937 it was 7.64 µM. The IC50 is 1.76 µM with HS578T; 5.94 µM with MCF-7; 1.09 µM in the data set on MDA-MB-231; 5.11 µM in the data set with MDA-MB-468; 5.12 µM in the data set on SKBR3; 5.95 µM in the data set on T47D. Moreover, the CC50 – broadly, the concentration at which the toxic effect on the cells reaches its halfway point – in the data set “in vitro” was found to be 8.52 µM; with 184B5, 7.89 µM.
In the case of `CC[C@H]1CCC[C@H](O[C@H]2CC[C@H](N(C)CCCCCCOC(=O)CCCC[C@@H]3SC[C@@H]4NC(=O)N[C@@H]43)[C@@H](C)O2)[C@@H](C)C(=O)C2=C[C@@H]3[C@@H](C=C[C@@H]4C[C@@H](O[C@@H]5O[C@@H](C)[C@H](OC)[C@@H](OC)[C@H]5OC)C[C@@H]34)[C@@H]2CC(=O)O1` [compound 4, Biotin-SPA], the KI (inactivation) in data set [3] stood at 9.01 µM.
